Measurements as given in PubChem BioAssay (NCI).
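Cells were grown in 96-well plates and exposed to each compound for 48 hours at five concentrations; endpoints were interpolated linearly between bracketing concentrations, or set to the highest concentration if not reached. The concentration for 50% growth inhibition is given as GI50. TGI is the concentration that stops growth completely.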

How the values were obtained:
Experiment in all cases: NCI anticancer screen, dose series, 48 h
HS 578T breast = tested on: HS 578T breast
SK-MEL-2 melanoma = tested on: SK-MEL-2 melanoma
IGROV1 ovarian = tested on: IGROV1 ovarian
NCI-H226 lung = tested on: NCI-H226 lung
PC-3 prostate = tested on: PC-3 prostate
SK-MEL-5 melanoma = tested on: SK-MEL-5 melanoma
UACC-62 melanoma = tested on: UACC-62 melanoma
NCI-H522 lung = tested on: NCI-H522 lung
ACHN renal = tested on: ACHN renal
SR leukemia = tested on: SR leukemia

Row | Structure (SMILES) | TGI (HS 578T breast) [µM] | TGI (SK-MEL-2 melanoma) [µM] | TGI (IGROV1 ovarian) [µM] | TGI (NCI-H226 lung) [µM] | TGI (PC-3 prostate) [µM] | TGI (SK-MEL-5 melanoma) [µM] | TGI (UACC-62 melanoma) [µM] | TGI (NCI-H522 lung) [µM] | TGI (ACHN renal) [µM] | TGI (SR leukemia) [µM] | GI50 (HS 578T breast) [µM] | GI50 (SK-MEL-2 melanoma) [µM] | GI50 (NCI-H226 lung) [µM] | GI50 (PC-3 prostate) [µM] | GI50 (SK-MEL-5 melanoma) [µM] | GI50 (UACC-62 melanoma) [µM] | GI50 (ACHN renal) [µM] | GI50 (IGROV1 ovarian) [µM] | GI50 (NCI-H522 lung) [µM] | GI50 (SR leukemia) [µM]
1 | COC1CC2CCC(C)[C@](O)(O2)C(=O)C(=O)N2CCCCC2C(=O)OC(C(C)CC2CCC(O)C(OC)C2)CC(=O)C(C)C=C(C)C(OC(=O)CN(C)C)C(OC)C(=O)C(C)CC(C)/C=C/C=C/C=C\1C (some centres not stated) | 16.9 | 15.1 | 9.88 | 22.3 | 21.2 | 19.8 | 20.2 | 22.6 | 19.6 |  |  |  |  |  |  |  |  |  |  | 
2 | CCOC(=O)/C=C1\Nc2ccccc2-n2nnnc21 |  | > 100 | > 100 | > 100 |  | > 100 | > 100 |  | > 100 | > 100 |  |  |  |  |  |  |  |  |  | 
3 | CC1C(=O)N(C)C2(CO)C(=O)O[C@H](C)C12O (some centres not stated) |  | > 100 | > 100 |  |  | > 100 | > 100 |  |  | > 100 |  |  |  |  |  |  |  |  |  | 
4 | CC[C@H](C)C(=O)O[C@H]1CCC=C2C=C[C@H](C)C(CCC3C[C@@H](O)CC(=O)O3)[C@H]21 (some centres not stated) | > 100 | > 100 |  | 46 | > 100 | 71.4 | 61.9 |  | > 100 |  | 5.19 | 6.98 | 6.2 | 1.48 | 3.78 | 4.75 | 1.7 |  |  | 
5 | CCC(=C(c1ccc(OCc2ccccc2)cc1)c1ccc(OCc2ccccc2)cc1)c1ccc(OC)cc1 |  | > 100 | > 100 | > 100 |  | > 100 | > 100 | > 100 | > 100 | > 100 |  |  |  |  |  |  |  |  |  | 
6 | O=C1c2ccccc2C(=O)c2nc(-c3ccccc3)c(-c3ccccc3)nc21 |  | > 100 |  | > 31.6 |  | 8.2 | > 100 | > 100 | > 100 |  |  |  |  |  |  |  |  |  |  | 
7 | CC(=O)Nc1ccc(/C=C/C(=O)c2sc(C(N)=S)nc2C)cc1 |  | > 100 | > 100 | > 100 |  | > 100 | > 100 | > 100 |  |  |  |  |  |  |  |  |  |  |  | 
8 | CC(C)=CCC/C(C)=C/CC/C(=C/COP(=O)(OCc1ccc([N+](=O)[O-])o1)N(C)CCCCCl)C(C)(C)C (configuration not stated) | 1.06 | 11.4 | 22.5 |  | 15.1 | 11.4 | 23.5 | 10 |  | > 100 |  | 2.73 |  | 0.43 | 3.29 | 9.21 |  | 6.29 | 2.66 | 0.128
9 | Cc1ccc(C2=NO[C@@H]3C(=O)N(c4ccc(Cc5ccc(N6C(=O)[C@H]7C(c8ccc(C)cc8)=NO[C@H]7C6=O)cc5)cc4)C(=O)[C@H]23)cc1 |  | > 100 | > 100 | > 100 |  | > 100 | > 100 |  | > 100 |  |  |  |  |  |  |  |  |  |  | 
10 | CNC1C(O)CC(OC2C/C=C(\C)C/C(C)=C/C=C/CCC(C)CNC(=O)/C=C/C=C/C2C)OC1C (configuration not stated) | 1.85 | 2.82 | 2.58 | 43.8 | 2.07 | 1.22 | 0.855 | 2.81 | 2.85 |  |  |  |  |  |  |  |  |  |  | 
11 | CCCCCCCCCCCC(=O)OCC1OC(n2cc(F)c(=O)[nH]c2=O)C(N)C(O)C1O (configuration not stated) |  | > 100 | > 100 | > 100 |  | > 100 | > 100 | > 100 | > 100 | > 100 |  |  |  |  |  |  |  |  |  | 
12 | O=C(Cn1ccnc1[N+](=O)[O-])NCC(F)(F)C(F)(F)F | > 100 | > 100 | > 100 | > 100 | > 100 | > 100 | > 100 | > 100 | > 100 |  | > 100 | > 100 | > 100 | > 100 | > 100 | > 100 | > 100 | > 100 | > 100 | 
13 | Nc1nc(N)c(-c2ccc(Cl)cc2)c(CCC(=O)Nc2cccc(C(F)(F)F)c2)n1 |  | > 100 | > 100 | > 100 |  | > 100 | > 100 | > 100 | > 100 | > 100 |  |  |  |  |  |  |  |  |  | 
14 | CN=S(=O)(C[C@]1(O)CC2OC1C1OC(C)(C)OC21)c1ccccc1 (some centres not stated) |  | > 100 | > 100 | > 100 |  | > 100 | > 100 | > 100 | > 100 |  |  |  |  |  |  |  |  |  |  | 
15 | Cc1c(Cl)ccc2c1NC(=O)C2(O)C1Cc2ccccc2C1=O (configuration not stated) |  | > 100 | > 100 | > 100 |  | > 100 | > 100 | > 100 | > 100 | > 100 |  |  |  |  |  |  |  |  |  | 
16 | COc1cc(-c2c(C)c(C)nc(OC)c2C#N)cc(OC)c1OC |  | > 100 | > 100 | > 100 |  | > 100 | > 100 |  | > 100 |  |  |  |  |  |  |  |  |  |  | 
17 | O=C(CC1(O)C(=O)Nc2c(Cl)cc(Cl)cc21)c1ccc2ccccc2c1 (configuration not stated) |  | 16.3 | 23.1 |  |  | 18.8 | 14.6 | 10.9 | 28.7 |  |  |  |  |  |  |  |  |  |  | 
18 | Cc1cc(C)n(-c2c(O)ccc(O)c2-n2nc(C)cc2C)n1 |  | > 100 | > 100 |  |  | > 100 | > 100 | > 100 | > 100 |  |  |  |  |  |  |  |  |  |  | 
19 | Cc1ccc(S(=O)(=O)n2cc(C(=O)C(=O)Nc3ccncc3)c3ccccc32)cc1 | > 100 | > 71.4 | > 100 | > 100 | > 100 | 21.3 | > 46.7 | 12.9 | > 100 |  |  | 5.76 | 8.6 | 1.6 | 0.785 | 0.829 | 7.82 | 5.74 | 0.438 | 
20 | O=C(CC(=O)C(F)(F)F)c1csc2ccccc12 |  | 53.7 | > 100 |  |  | > 100 | > 100 | > 100 | > 100 | 50.1 |  |  |  |  |  |  |  |  |  | 
21 | Clc1ccc2nc(CCSCCc3nc4ccc(Cl)cc4[nH]3)[nH]c2c1 |  | 28.8 | 25.4 | 41.8 |  | 18.4 | 19.2 | 26.5 | 11.4 | 1.14 |  |  |  |  |  |  |  |  |  | 
22 | O=C(NCC#CCO)C(F)(F)F |  | > 100 | > 100 | > 100 |  | > 100 | > 100 | > 100 | > 100 | > 100 |  |  |  |  |  |  |  |  |  | 
